We go through eight compounds from US9073835B2, “N-acylthiourea and N-acylurea inhibitors of the Hedgehog protein signalling pathway” (Centre National De La Recherche Scientifique, priority 2008, dated 2015).

Series [1] relates to Hedgehog protein signaling pathway. Description: Inhibition of SAG-induced alkaline phosphatase activity (differentiation) in C3H10T1/2 cells. It is filed as cell-based. The note with it: for inhibition at 10 µM: C3H 10T1/2, 10 μM test compound. As to the method: The effect of compounds with formula (I) as claimed in the invention on inhibition of the Hedgehog protein signaling pathway was determined by analysis of differentiation in the pluripotent fibroblast cell line C3H10T1/2 after activation of this pathway in these cells using a synthetic activator: SAG.
The compounds with formula (I) to be tested were dissolved in dimethylsulfoxide to a concentration of 10 mM, then stored at a temperature of −20° C. until use.
The pluripotent fibroblast cell line C3H10T1/2 (ATCC) was cultivated under the conditions recommended by the ATCC. These cells were activated using 0.1 μM of SAG, employing the methods described by Chen et al., Proc. Natl. Acad. Sci. USA, 2002, 99, 14071 and Frank-Kamenetsky et al., J. Biol., 2002, 1, 10.
Activation with SAG provokes differentiation of the cell line and allows them to express alkaline phosphatase. It is then possible to measure the activity of the Hedgehog protein signaling pathway by measuring the alkaline phosphatase activity.
The C3H10T1/2 cells were plated onto 96-well plates at a density of […], 24 hours before addition of the test compounds in a concentration of 1 nM to 30 μM and in the presence of 0.1 μM of SAG using DMEM supplemented with 10% fetal calf serum as the culture medium. The tests were carried out in quadruplicate. The plates were then incubated for 5-6 days at a temperature of 37° C. in an atmosphere of 5% CO2. The cells were washed in a cold phosphate buffer (“Phosphate Buffer Serum”: PBS) then lysed by sonication at 4° C. in 50 μl of a solution containing 0.9% of NaCl and 0.2% of Triton X-100.
By way of comparison, the activity of a known inhibitor of the Hedgehog protein signaling pathway, CURIS 61 414, as described, for example, by Frank-Kamenetsky M. et al. (J. Biol., 2002, 1, 10), was tested under the same conditions as those used to test the various compounds with formula (I) as claimed in the invention.
The alkaline phosphatase activity measurement in the lysates obtained was then carried out using the method described by Pepinsky et al. (J. Biol. Chem., 1998, 273, 14037). After adding 100 μl of reaction buffer (200 mM Tris-HCl; pH 10.5; 0.4 M of 2-amino-2-methylpropanol and 8 mM of MgCl2) and 50 μl of substrate (4 mM of disodium p-nitrophenyl phosphate), the lysates were incubated at 37° C. for 30-60 min, then the optical density was read at a wavelength of 415 nm.

The target of series [2] is T1, mouse Smoothened protein (Mus musculus, UniProt P56726).
T1 construct: expressed in transfected cells; host or cells: HEK293
T1 sequence (P56726 33-793): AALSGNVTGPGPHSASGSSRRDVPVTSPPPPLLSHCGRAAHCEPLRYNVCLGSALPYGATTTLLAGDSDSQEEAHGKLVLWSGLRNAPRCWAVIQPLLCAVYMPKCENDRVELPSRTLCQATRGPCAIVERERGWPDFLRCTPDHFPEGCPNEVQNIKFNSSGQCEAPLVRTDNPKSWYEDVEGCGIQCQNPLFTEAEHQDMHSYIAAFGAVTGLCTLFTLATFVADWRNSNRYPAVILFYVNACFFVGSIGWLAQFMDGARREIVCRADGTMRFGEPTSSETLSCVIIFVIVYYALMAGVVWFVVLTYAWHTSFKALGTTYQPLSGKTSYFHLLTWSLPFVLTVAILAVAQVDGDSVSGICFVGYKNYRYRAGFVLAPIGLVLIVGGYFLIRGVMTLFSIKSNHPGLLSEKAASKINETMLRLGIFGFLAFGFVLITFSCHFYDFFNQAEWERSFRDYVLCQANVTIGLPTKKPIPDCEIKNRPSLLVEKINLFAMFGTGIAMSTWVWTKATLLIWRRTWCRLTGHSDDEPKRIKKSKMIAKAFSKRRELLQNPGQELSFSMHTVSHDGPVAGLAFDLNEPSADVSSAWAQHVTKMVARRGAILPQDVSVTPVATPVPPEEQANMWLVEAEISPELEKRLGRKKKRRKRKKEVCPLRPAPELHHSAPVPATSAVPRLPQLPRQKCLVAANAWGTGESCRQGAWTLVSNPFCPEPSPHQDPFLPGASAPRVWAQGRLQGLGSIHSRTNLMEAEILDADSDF
Description: Competitive Bodipycyclopamine binding on HEK293 cells transfected with mouse Smoothened. Particulars: for IC50: 5 nM Bodipycyclopamine, 2 hours at 37° C., HEK293 cells expressing mouse Smoothened; for Bodipycyclopamine binding competition: fluorescence microscopy, FIGS. 2 and 3. The procedure: HEK293 cells were plated in a quantity of 70 000 cells per well onto glass cover slips treated with poly-D-lysine into 24-well plates, and transfected the next day with 0.25 μg of plasmid encoding the mouse Smoothened protein (Masdeu C., Faure H., Coulombe J., Schoenfelder A., Mann A., Brabet I., Pin J-P., Traiffort E. and Ruat M., Identification and characterization of Hedgehog modulator properties after functional coupling of Smoothened to G15, Biochem Biophys Res. Commun., 2006, 349:471-479), using 0.7 μL of fugene6 (Roche Biochemicals). After 48 hours, the culture medium was eliminated, the cells were rinsed once with 1 mL of a phosphate buffer solution, PBS (Phosphate Buffered Saline), then fixed for 20 minutes in the presence of an iced 4% solution of paraformaldehyde (PFA) and 0.12M glucose in a PBS phosphate buffer solution. The cells were then rinsed twice and washed twice for 5 minutes with 1 mL of a phosphate buffer solution and 0.5% of fetal calf serum (PBS-FCS). Next, 1 mL of Bodipycyclopamine (BC) (Chen, J. K., Taipale, J., Cooper, M. K., and Beachy, P. A., Genes Dev., 2002, 16 (21), 2743-2748), diluted to 5 nM in PBS-FCS, in the presence of compounds 31 and 38 of the invention, was applied to the cells for 2 hours at 37° C. The cells were then washed twice for 5 minutes with 1 mL of PBS-FCS and brought into the presence of 1 mL of a PBS 1× phosphate buffer solution. Finally, the cover slips were mounted on a glass slide in the presence of Vectashield containing DAPI (4′,6′-DiAmidino-2-Phenyl Indole) to stain the cell nuclei (Vector).
In FIG. 2, the intensity of the fluorescence was analyzed using Simple PCI 6.2 software (Hamamatsu Corporation), then related to the surface area of the nuclei present in the photograph.

The mark [3] stands for this setting: Mus musculus, percentage of alkaline phosphatase activity induced by SAG.
The mark [4] stands for this setting: Mus musculus, C3H 10T1/2, after induction by 0.1 μM SAG.

On to “N-[[[3-(benzoylamino)phenyl]amino]thioxomethyl]-3,4,5-methoxy-benzamide [Compound 38]”, for which the “% INHIBITION of alkaline phosphatase activity” value in series [1] (10 μM test compound, percentage of alkaline phosphatase activity induced by SAG) is on record as “A (the letter A corresponds to an inhibition of more than 80%)”. This compound registered an IC50 in series [1] (after induction by 0.1 μM SAG) of 0.01 to 1 µM. In addition, in series [2], the IC50 stood at 500 nM and the Bodipycyclopamine binding competition result is “binding competition was observed”.

Regarding `CC1=C2C[C@H]3[C@@H](CC=C4C[C@@H](O)CC[C@@]43C)[C@@H]2CC[C@]12O[C@@H]1C[C@H](C)CN[C@H]1[C@H]2C` [Cyclopamine, reference compound], the Bodipycyclopamine binding competition entry in series [2] is on record as “binding competition was observed”.

In turn, `COc1ccc(C(=O)Nc2cccc(NC(=S)NC(=O)c3cc(OC)c(OC)c(OC)c3)c2)cc1` [Compound 1, N-[[[3-(4-methoxy-benzoylamino)phenyl]amino]thioxomethyl]-3,4,5-methoxy-benzamide] returned a melting point of 147 °C. The compound further had an inhibition at 10 µM in series [1] (setting [3]) of over 80%. The same compound registered an IC50 in series [1] (setting [4]) of 1 to 3 µM.

In series [1] (setting [3]), `COc1cc(C(=O)NC(=O)Nc2cccc(NC(=O)c3ccccc3)c2)cc(OC)c1OC` [Compound 31, N-[[[3-(benzoylamino)phenyl]amino]oxomethyl]-3,4,5-methoxy-benzamide] displayed an inhibition at 10 µM of over 80%. The IC50 in series [1] (setting [4]) is 0.01 to 1 µM; in series [2], 120 nM. The Bodipycyclopamine binding competition result in series [2] is “binding competition was observed”.

Turning to `COc1cc(C(=O)NC(=S)Nc2cccc(NC(=O)c3ccccc3Cl)c2)cc(OC)c1OC` [Compound 2, N-[[[3-(2-chloro-benzoylamino)phenyl]amino]thioxomethyl]-3,4,5-methoxy-benzamide], the inhibition at 10 µM in series [1] (setting [3]) was over 80%. The IC50 in series [1] (setting [4]) was 1 to 3 µM.

In series [1] (setting [3]), `COc1cc(C(=O)NC(=O)Nc2cccc(-c3cc4ccccc4[nH]3)c2)cc(OC)c1OC` [Compound 53, N-(3-(1H-indol-2-yl)phenylcarbamoyl)-3,4,5-trimethoxybenzamide] came in with an inhibition at 10 µM of over 80%. The compound also showed a concentration for half-maximal inhibition (IC50) in series [1] (setting [4]) of 0.01 to 1 µM.

Regarding `COc1cc(C(=O)NC(=S)Nc2ccc(Cl)c(NC(=O)c3ccccc3)c2)cc(OC)c1OC` [Compound 34, N-[[[4-chloro-3-(benzoylamino)phenyl]amino]thioxomethyl]-3,4,5-methoxy-benzamide], in series [1] (setting [3]), the inhibition at 10 µM is over 80%. The same compound registered an IC50 in series [1] (setting [4]) of 0.01 to 1 µM.

Take `COc1ccc(C(=O)NC(=S)Nc2cccc(NC(=O)c3ccccc3)c2)c(OC)c1` [Compound 22, N-[[[3-(benzoylamino)phenyl]amino]thioxomethyl]-2,4-methoxy-benzamide]: the inhibition at 10 µM in series [1] (setting [3]) was in the range of 20 to 80%. The IC50 in series [1] (setting [4]) lay within 1 to 3 µM.

In general, IC50 refers to the concentration that inhibits the measured activity by half. As usually defined, the inhibition is the change of the read-out against control, counted positive when it falls. What is called melting point is the temperature of the solid-liquid transition.
